Data from patent US20230330134A1, “METHOD OF PROPHYLAXIS OF CORONAVIRUS AND/OR RESPIRATORY SYNCYTIAL VIRUS INFECTION” (Starpharma Pty Ltd., priority 2020, published 2023).
Structures can show the parent of a compound that is named as a salt. Where two headings read alike, the source gives them in different places.

Tests used:
[1] = system: SARS-CoV-2 2019-nCoV/USA-WAl/2020; assay: Antiviral activity in primary human bronchial epithelial cells (HBEpC); format: cell-based; conditions: highest concentration tested (600 µg/mL), added 1 hour prior to infection, day 4
[2] = system: SARS-CoV-2 hCoV-19/Australia/VIC01/2020; assay: microbe, parasite or virus in culture; format: cell-based; conditions: Severe acute respiratory syndrome coronavirus 2, 96 h; positive control; Vero cells; […]; CPE by MTT after 4 days; read-out: EC50
[3] = system: SARS-CoV-2 (2019-nCoV/USA-WA1/2020); assay: microbe, parasite or virus in culture; format: cell-based; conditions: for EC50: read-out: EC50
[4] = system: SARS-CoV-2 (hCoV-19/Australia/VIC01/2020); format: cell-based
SARS = conditions: cited from earlier work
BetaCoV/Wuhan/WIV04/2019 = conditions: against BetaCoV/Wuhan/WIV04/2019; cited from earlier work

iota-carrageenan [reference compound]
reduction of infection by nucleocapsid ELISA [1]: 17% | reduction of infection in the plaque assay [1]: 21%

CCC(CC)COC(=O)[C@H](C)N[P@](=O)(OC[C@H]1O[C@@](C#N)(c2ccc3c(N)ncnn23)[C@H](O)[C@@H]1O)Oc1ccccc1 [Remdesivir, reference compound]
EC50 [2]: 5.05 µM | EC50 ([3]; Severe acute respiratory syndrome coronavirus 2, Calu-3): 0.589 µM | EC50 ([3]; Severe acute respiratory syndrome coronavirus 2, Vero C1008): 0.791 µM | activity in the plaque assay ([3]; positive control): active | inhibition of virus replication [4]: < 1 log10 TCID50

CCN(CCO)CCCC(C)Nc1ccnc2cc(Cl)ccc12 (centres unmarked) [Hydroxychloroquine sulfate]
effect on virus replication ([4]; 15 µM, any time point): no discernible effect

CCN(CC)CCCC(C)Nc1ccnc2cc(Cl)ccc12 (centres unmarked) [chloroquine]
IC50 (SARS; against SARS): 8 µM | CC50 (SARS): 261 µM | EC50 (BetaCoV/Wuhan/WIV04/2019): 1.13 µM
